# In ChEMBL document CHEMBL4321812, “Structure-based rational design of staurosporine-based fluorescent probe with broad-ranging kinase affinity for kinase panel application” (Bioorg Med Chem Lett, 2019):
# Columns and labels:
# [1] = target: Phosphorylase b kinase gamma catalytic chain, skeletal muscle/heart isoform (Homo sapiens, UniProt Q16816); assay: Binding affinity to recombinant full-length N-terminal His-FLAG-GST-tagged PHKG1 (unknown origin) expressed in baculovirus infected Sf9 insect cells incubated for 1 hr by TR-FRET assay
# [2] = target: cAMP-dependent protein kinase catalytic subunit beta (Homo sapiens, UniProt P22694); assay: Binding affinity to recombinant full-length N-terminal His-FLAG-GST-tagged PRKACB (unknown origin) expressed in baculovirus infected Sf9 insect cells incubated for 1 hr by TR-FRET assay
# [3] = target: Serine/threonine-protein kinase 25 (Homo sapiens, UniProt O00506); assay: Binding affinity to recombinant full-length N-terminal His-FLAG-GST-tagged STK25 (unknown origin) expressed in baculovirus infected Sf9 insect cells incubated for 1 hr by TR-FRET assay
# Activated CDC42 kinase 1 = Activated CDC42 kinase 1 (Homo sapiens, UniProt Q07912); assay: Binding affinity to recombinant N-terminal His-FLAG-GST-tagged TNK2 (unknown origin) (110 to 476 residues) expressed in baculovirus infected Sf9 insect cells incubated for 1 hr by TR-FRET assay
# [4] = target: Homeodomain-interacting protein kinase 4 (Homo sapiens, UniProt Q8NE63); assay: Binding affinity to recombinant full-length N-terminal His-FLAG-tagged HIPK4 (unknown origin) expressed in baculovirus infected Sf9 insect cells incubated for 1 hr by TR-FRET assay
# [5] = target: Serine/threonine-protein kinase SIK2 (Homo sapiens, UniProt Q9H0K1); assay: Binding affinity to recombinant full-length N-terminal His-FLAG-GST-tagged SIK2 (unknown origin) expressed in baculovirus infected Sf9 insect cells incubated for 1 hr by TR-FRET assay
# [6] = target: AP2-associated protein kinase 1 (Homo sapiens, UniProt Q2M2I8); assay: Binding affinity to recombinant full-length N-terminal His-FLAG-GST-tagged AAK1 (unknown origin) expressed in baculovirus infected Sf9 insect cells incubated for 1 hr by TR-FRET assay
# [7] = target: Inhibitor of nuclear factor kappa-B kinase subunit epsilon (Homo sapiens, UniProt Q14164); assay: Binding affinity to recombinant full-length N-terminal His-FLAG-GST-tagged IKBKE (unknown origin) expressed in baculovirus infected Sf9 insect cells incubated for 1 hr by TR-FRET assay
# [8] = target: Ribosomal protein S6 kinase alpha-5 (Homo sapiens, UniProt O75582); assay: Binding affinity to recombinant full-length N-terminal His-FLAG-GST-tagged RPS6KA5 (unknown origin) expressed in baculovirus infected Sf9 insect cells incubated for 1 hr by TR-FRET assay
# [9] = target: Citron Rho-interacting kinase (Homo sapiens, UniProt O14578); assay: Binding affinity to recombinant full-length N-terminal His-FLAG-GST-tagged CIT (unknown origin) (1 to 449 residues) expressed in baculovirus infected Sf9 insect cells incubated for 1 hr by TR-FRET assay
# [10] = target: Tyrosine-protein kinase ABL2 (Homo sapiens, UniProt P42684); assay: Binding affinity to recombinant full-length N-terminal His-FLAG-GST-tagged ABL2 (unknown origin) (2 to 52 and 74 to 1182 residues) expressed in baculovirus infected Sf9 insect cells incubated for 1 hr by TR-FRET assay
# [11] = target: Mitogen-activated protein kinase 10 (Homo sapiens, UniProt P53779); assay: Binding affinity to recombinant full-length N-terminal His-FLAG-GST-tagged MAPK10 (unknown origin) expressed in baculovirus infected Sf9 insect cells incubated for 1 hr by TR-FRET assay
# [12] = target: ALK tyrosine kinase receptor (Homo sapiens, UniProt Q9UM73); assay: Binding affinity to recombinant human […] N-terminal GST-tagged ALK (1058 to 1620 residues) expressed in baculovirus expression system using Srctide as substrate incubated for 1 hr by TR-FRET assay
# [13] = target: Mitogen-activated protein kinase kinase kinase kinase 5 (Homo sapiens, UniProt Q9Y4K4); assay: Binding affinity to recombinant full-length N-terminal His-FLAG-GST-tagged MAP4K5 (unknown origin) expressed in baculovirus infected Sf9 insect cells incubated for 1 hr by TR-FRET assay
# [14] = target: 3-phosphoinositide-dependent protein kinase 1 (Homo sapiens, UniProt O15530); assay: Binding affinity to recombinant full-length N-terminal His-FLAG-GST-tagged PDPK1 (unknown origin) expressed in baculovirus infected Sf9 insect cells incubated for 1 hr by TR-FRET assay
# [15] = target: Tyrosine-protein kinase HCK (Homo sapiens, UniProt P08631); assay: Binding affinity to recombinant full-length N-terminal His-FLAG-GST-tagged HCK (unknown origin) (25 to 526 residues) expressed in baculovirus infected Sf9 insect cells incubated for 1 hr by TR-FRET assay
# [16] = target: Mitogen-activated protein kinase 12 (Homo sapiens, UniProt P53778); assay: Binding affinity to recombinant full-length N-terminal His-FLAG-GST-tagged MAPK12 (unknown origin) expressed in baculovirus infected Sf9 insect cells incubated for 1 hr by TR-FRET assay
# [17] = target: Calcium/calmodulin-dependent protein kinase type II subunit alpha (Homo sapiens, UniProt Q9UQM7); assay: Binding affinity to recombinant human full-length N-terminal GST-tagged CAMK2A expressed in baculovirus expression system using GS peptide as substrate incubated for 1 hr in presence of calmodulin by TR-FRET assay
# [18] = target: cAMP-dependent protein kinase catalytic subunit alpha (Homo sapiens, UniProt P17612); assay: Binding affinity to recombinant human full length N-terminal GST-tagged PRKACA expressed in baculovirus expression system using kemptide as substrate incubated for 1 hr by TR-FRET assay
# [19] = target: Serine/threonine-protein kinase ULK1 (Homo sapiens, UniProt O75385); assay: Binding affinity to recombinant N-terminal His-FLAG-GST-tagged ULK1 (unknown origin) (1 to 649 residues) expressed in baculovirus infected Sf9 insect cells incubated for 1 hr by TR-FRET assay
# [20] = target: Mitogen-activated protein kinase kinase kinase 11 (Homo sapiens, UniProt Q16584); assay: Binding affinity to recombinant N-terminal His-FLAG-GST-tagged MAP3K11 (unknown origin) (99 to 398 residues) expressed in baculovirus infected Sf9 insect cells incubated for 1 hr by TR-FRET assay
# [21] = target: Serine/threonine-protein kinase Sgk2 (Homo sapiens, UniProt Q9HBY8); assay: Binding affinity to recombinant full-length N-terminal His-FLAG-tagged SGK2 (unknown origin) expressed in baculovirus infected Sf9 insect cells incubated for 1 hr by TR-FRET assay
# [22] = target: Testis-specific serine/threonine-protein kinase 1 (Homo sapiens, UniProt Q9BXA7); assay: Binding affinity to recombinant full-length N-terminal His-FLAG-GST-tagged TSSK1B (unknown origin) expressed in baculovirus infected Sf9 insect cells incubated for 1 hr by TR-FRET assay
# [23] = target: Dual specificity mitogen-activated protein kinase kinase 1 (Homo sapiens, UniProt Q02750); assay: Binding affinity to recombinant full-length N-terminal His-FLAG-tagged MAP2K1 (unknown origin) expressed in baculovirus infected Sf9 insect cells incubated for 1 hr by TR-FRET assay
# Sequence of Dual specificity mitogen-activated protein kinase kinase 1 (Q02750 whole entry): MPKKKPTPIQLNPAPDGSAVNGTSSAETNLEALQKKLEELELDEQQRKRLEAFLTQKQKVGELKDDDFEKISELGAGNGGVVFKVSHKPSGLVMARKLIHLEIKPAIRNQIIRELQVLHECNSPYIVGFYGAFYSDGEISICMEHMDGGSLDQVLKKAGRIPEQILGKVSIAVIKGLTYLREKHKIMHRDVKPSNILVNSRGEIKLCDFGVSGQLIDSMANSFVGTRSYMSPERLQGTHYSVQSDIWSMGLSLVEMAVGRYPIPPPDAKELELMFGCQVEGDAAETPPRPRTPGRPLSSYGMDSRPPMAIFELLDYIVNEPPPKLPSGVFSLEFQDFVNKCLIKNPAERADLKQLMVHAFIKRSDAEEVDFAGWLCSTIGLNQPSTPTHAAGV
# Sequence of AP2-associated protein kinase 1 (Q2M2I8 whole entry): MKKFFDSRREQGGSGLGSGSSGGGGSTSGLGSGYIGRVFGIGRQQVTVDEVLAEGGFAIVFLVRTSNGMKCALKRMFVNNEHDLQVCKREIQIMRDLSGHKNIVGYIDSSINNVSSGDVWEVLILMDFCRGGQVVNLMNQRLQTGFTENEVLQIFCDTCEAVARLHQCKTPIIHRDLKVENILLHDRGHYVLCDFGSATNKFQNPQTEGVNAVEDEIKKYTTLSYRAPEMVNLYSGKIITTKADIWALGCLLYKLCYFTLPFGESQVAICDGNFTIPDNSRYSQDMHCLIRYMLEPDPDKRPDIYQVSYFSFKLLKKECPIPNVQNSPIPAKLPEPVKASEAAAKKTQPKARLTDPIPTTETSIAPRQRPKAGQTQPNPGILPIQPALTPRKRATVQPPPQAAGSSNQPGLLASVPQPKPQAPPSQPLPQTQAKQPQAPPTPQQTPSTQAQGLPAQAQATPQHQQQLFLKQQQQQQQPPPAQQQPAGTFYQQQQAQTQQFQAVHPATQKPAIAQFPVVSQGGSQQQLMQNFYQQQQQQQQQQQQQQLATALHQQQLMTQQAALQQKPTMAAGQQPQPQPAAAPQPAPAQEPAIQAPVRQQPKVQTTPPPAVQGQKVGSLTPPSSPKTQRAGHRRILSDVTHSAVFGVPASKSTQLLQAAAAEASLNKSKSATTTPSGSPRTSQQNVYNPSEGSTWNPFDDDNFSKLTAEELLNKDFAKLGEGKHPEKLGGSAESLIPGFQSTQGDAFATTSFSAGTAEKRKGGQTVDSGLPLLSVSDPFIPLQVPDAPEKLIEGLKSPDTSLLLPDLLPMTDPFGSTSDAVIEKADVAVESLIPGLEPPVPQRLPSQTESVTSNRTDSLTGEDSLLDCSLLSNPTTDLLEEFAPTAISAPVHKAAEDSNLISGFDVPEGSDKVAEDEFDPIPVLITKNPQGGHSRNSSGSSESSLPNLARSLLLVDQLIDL
# Sequence of Serine/threonine-protein kinase 25 (O00506 whole entry, the tested form may be a part): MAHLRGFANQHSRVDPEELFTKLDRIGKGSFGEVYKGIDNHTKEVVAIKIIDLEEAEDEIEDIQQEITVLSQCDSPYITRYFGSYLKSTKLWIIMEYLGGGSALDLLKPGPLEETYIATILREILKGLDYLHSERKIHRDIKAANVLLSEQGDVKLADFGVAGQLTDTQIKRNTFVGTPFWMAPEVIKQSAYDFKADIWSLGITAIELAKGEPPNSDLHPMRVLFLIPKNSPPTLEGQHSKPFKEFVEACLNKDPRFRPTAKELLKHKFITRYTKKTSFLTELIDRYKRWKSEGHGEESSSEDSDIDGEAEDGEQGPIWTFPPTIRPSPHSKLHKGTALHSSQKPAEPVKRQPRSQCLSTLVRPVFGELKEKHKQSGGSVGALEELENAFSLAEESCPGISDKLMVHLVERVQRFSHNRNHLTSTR
# Sequence of ALK tyrosine kinase receptor (Q9UM73 whole entry, the tested form may be a part): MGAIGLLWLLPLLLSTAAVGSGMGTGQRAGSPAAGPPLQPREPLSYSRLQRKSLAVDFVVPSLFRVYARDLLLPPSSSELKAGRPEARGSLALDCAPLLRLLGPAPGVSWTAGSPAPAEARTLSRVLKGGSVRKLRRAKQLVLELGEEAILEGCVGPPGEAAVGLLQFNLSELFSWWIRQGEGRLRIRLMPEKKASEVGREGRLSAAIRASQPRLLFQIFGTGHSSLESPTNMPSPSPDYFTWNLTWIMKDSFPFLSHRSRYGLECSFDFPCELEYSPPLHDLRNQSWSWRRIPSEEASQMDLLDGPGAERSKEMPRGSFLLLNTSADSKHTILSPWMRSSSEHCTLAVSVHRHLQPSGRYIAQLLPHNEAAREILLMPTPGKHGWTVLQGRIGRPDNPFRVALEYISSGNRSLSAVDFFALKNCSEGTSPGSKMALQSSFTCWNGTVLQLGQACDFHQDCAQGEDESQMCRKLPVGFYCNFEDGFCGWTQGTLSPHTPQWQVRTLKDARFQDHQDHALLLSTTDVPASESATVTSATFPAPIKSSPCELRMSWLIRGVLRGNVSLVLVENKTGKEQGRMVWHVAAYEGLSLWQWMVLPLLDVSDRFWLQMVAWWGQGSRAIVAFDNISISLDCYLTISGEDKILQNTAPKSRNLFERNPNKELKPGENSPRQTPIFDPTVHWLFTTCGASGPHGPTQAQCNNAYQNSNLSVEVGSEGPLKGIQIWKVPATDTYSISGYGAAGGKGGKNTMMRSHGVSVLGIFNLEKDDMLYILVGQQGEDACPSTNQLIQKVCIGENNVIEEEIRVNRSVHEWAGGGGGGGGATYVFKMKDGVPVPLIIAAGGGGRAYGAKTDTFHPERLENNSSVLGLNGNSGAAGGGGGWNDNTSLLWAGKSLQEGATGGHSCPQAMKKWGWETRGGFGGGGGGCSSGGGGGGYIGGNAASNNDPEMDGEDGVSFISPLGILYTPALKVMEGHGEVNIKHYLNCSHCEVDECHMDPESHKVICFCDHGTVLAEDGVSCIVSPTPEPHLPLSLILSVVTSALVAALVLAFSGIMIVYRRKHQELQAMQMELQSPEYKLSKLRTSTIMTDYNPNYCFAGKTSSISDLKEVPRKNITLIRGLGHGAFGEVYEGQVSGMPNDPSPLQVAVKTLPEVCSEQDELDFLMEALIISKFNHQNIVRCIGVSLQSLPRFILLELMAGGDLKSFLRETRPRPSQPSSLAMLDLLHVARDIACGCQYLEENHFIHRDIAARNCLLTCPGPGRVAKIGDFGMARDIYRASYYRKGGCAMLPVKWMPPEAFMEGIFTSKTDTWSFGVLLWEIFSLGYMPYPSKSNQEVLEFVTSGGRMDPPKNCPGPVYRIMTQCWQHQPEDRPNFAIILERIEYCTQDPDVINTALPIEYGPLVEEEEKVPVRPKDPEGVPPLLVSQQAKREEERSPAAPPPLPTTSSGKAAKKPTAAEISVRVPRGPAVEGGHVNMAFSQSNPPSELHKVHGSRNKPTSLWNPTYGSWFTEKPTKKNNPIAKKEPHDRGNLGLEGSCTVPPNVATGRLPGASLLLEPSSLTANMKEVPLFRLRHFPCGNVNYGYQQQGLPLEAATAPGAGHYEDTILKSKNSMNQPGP
# Sequence of Mitogen-activated protein kinase kinase kinase 11 (Q16584 whole entry, the tested form may be a part): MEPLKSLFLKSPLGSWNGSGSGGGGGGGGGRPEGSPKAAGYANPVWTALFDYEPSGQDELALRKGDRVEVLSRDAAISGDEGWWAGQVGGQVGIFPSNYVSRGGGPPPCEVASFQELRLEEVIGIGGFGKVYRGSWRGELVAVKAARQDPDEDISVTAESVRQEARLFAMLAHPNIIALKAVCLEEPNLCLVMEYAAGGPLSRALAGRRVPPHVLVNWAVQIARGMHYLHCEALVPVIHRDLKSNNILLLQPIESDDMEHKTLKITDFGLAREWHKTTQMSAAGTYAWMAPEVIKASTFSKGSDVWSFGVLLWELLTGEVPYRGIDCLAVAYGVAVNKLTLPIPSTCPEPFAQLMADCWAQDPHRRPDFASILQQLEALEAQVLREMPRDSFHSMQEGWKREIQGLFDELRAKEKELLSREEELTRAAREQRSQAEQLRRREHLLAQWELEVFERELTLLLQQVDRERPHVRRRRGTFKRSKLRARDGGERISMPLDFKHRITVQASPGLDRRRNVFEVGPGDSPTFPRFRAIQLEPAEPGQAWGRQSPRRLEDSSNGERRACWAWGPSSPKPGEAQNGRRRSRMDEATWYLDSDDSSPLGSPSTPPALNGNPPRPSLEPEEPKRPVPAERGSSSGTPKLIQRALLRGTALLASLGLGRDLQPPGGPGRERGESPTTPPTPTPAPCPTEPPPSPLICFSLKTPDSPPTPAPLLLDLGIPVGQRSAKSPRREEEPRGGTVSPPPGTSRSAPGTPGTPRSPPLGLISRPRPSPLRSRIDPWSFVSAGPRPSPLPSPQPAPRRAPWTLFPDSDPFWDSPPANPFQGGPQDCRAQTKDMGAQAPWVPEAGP
# Sequence of Calcium/calmodulin-dependent protein kinase type II subunit alpha (Q9UQM7 whole entry): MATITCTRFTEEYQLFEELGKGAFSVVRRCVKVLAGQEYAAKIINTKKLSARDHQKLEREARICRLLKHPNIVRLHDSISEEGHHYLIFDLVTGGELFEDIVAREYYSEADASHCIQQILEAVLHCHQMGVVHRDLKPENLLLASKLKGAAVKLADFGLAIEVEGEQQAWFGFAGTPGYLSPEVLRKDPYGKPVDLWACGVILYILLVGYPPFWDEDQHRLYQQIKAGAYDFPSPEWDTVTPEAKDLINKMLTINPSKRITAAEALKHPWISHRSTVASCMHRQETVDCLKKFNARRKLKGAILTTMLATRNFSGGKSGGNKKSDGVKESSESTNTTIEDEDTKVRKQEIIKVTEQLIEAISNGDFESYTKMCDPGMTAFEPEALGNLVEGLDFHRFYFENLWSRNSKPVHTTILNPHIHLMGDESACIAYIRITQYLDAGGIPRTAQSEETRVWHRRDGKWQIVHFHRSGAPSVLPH
SMILES,Kd [1] [nM],Kd [2] [nM],Kd [3] [nM],Kd (Activated CDC42 kinase 1) [nM],Kd [4] [nM],Kd [5] [nM],Kd [6] [nM],Kd [7] [nM],Kd [8] [nM],Kd [9] [nM],Kd [10] [nM],Kd [11] [nM],Kd [12] [nM],Kd [13] [nM],Kd [14] [nM],Kd [15] [nM],Kd [16] [nM],Kd [17] [nM],Kd [18] [nM],Kd [19] [nM],other results
CO[C@@H]1[C@H](NCCOCCOCCOCCNC(=O)CCC2=[N+]3C(=Cc4c(C)cc(C)n4[B-]3(F)F)C=C2)C[C@H]2O[C@]1(C)n1c3ccccc3c3c4c(c5c6ccccc6n2c5c31)C(=O)NC4,1,64,444,36,424,4,6,58,345,747,531,315,230,87,8,263,948,15,116,135,Kd [20]: 3 nM; Kd [21]: 1220 nM; Kd [22]: 18 nM; Kd [23]: 328 nM
CO[C@@H]1[C@H](N(C)CCOCCOCCOCCNC(=O)CCC2=[N+]3C(=Cc4c(C)cc(C)n4[B-]3(F)F)C=C2)C[C@H]2O[C@]1(C)n1c3ccccc3c3c4c(c5c6ccccc6n2c5c31)C(=O)NC4,3,66,443,42,472,3,5,44,249,710,947,245,172,377,8,280,1020,9,42,311,Kd [20]: 4 nM; Kd [21]: 1770 nM; Kd [22]: 19 nM; Kd [23]: 428 nM
